Reference: patent US20240408043A1, “COMPOSITIONS AND METHODS FOR USE IN INCREASING MOTIVATIONAL PERFORMANCE” (SOCIETE DES PRODUITS NESTLE S.A., priority 2021, published 2024)
Entries after “also recorded” stand apart in the source; their conditions may differ.

Tests used:
[1] = test system: GSH in the nucleus accumbens; experiment: GSH level in the nucleus accumbens after NAC in the drinking water; format: in vivo, rat; conditions: adult male rats, NAC 500 mg/L in the drinking water for 2 weeks, FIG. 1B
[2] = test system: Adult male Wistar rats; experiment: Progressive ratio test of motivated behaviour (operant conditioning, nose poke for saccharine pellets); format: in vivo, rat; conditions: NAC 500 mg/L in the drinking water for 2 weeks, two-hour session
Procedure: Adult male outbred rats were trained for nose poke for saccharine food pellets for one week on an FR1 training schedule as described in the methods below. […] Following 2 weeks of treatment, rats were given an additional 2 training sessions, followed 24 h later by a progressive ratio session designed to test their motivated behaviour. During this progressive ratio session, rats have to increasingly work harder to earn the saccharine pellet, as described in the methods below. […] The breakpoint is defined as the last step in the session where the animals received a reward and is a direct correlate of their willingness to exert an effort. […] Animals: Adult male Wistar rats (Charles Rivers, Saint-German-Nuelle, France) weighing 250-275 gr at the beginning of the experiment were used for all experiments. Rats were individually housed in cages in housing colonies on a 12:12 h reversed light:dark cycle with lights on at 20:00, and lights-off at 8:00. Food and water were available adlibitum. Following a week of acclimatization to the animal facilities, rats were handled for 2 min per day for three days prior to the start of the experiments, in order to habituate to the experimenters. Operant conditioning: Ten days after introduction to the reversed day-night cycle, rats started training in a fixed ratio 1 reinforcement schedule (FR1). Operant chambers (Coulbourn Instruments, Holliston, MA, US), placed in sound attenuating cubicles, were equipped with a grid, underneath which a tray with standard bedding material was placed for collection of feces and urine after each training session. Each chamber had one food tray and two ports placed on either side of the tray. A cue light was placed in each port and the food tray, whereas a house light was placed above the food tray. […] Correct nosepokes (i.e. nosepokes in the active port and outside the timeout period, thus resulting in food delivery) were calculated to evaluate behavioural performance, as well as the number of acquired rewards and the last completed ratio (breakpoint).

CC(=O)N[C@@H](CS)C(=O)O [NAC, N-acetyl cysteine]
GSH in the nucleus accumbens compared to vehicle treated rats [1]: enhance GSH levels; also recorded: enhanced GSH | nose pokes for the reward (correct nosepokes) in progressive ratio session, compared to vehicle ([2]; FIG. 1C): significantly more nose pokes | number of rewards earned in progressive ratio session, compared to vehicle ([2]; FIG. 1D): greater number of rewards; also recorded: more overall rewards | breakpoint (last completed ratio) in progressive ratio session, compared to vehicle ([2]; FIG. 1E): significantly higher breakpoint level
